Laboratory results reported in patent publication US10968178B2, “IP6K inhibitors” (TAKEDA PHARMACEUTICAL COMPANY LIMITED, priority 2017, dated 2021).

Key:
Type in all cases: biochemical
human IP6K3 = target: T1, human IP6K3 (Homo sapiens, UniProt Q96PC2); experiment: IP6K enzyme inhibitory assay (ADP-Glo Kinase Assay), human IP6K3; details: compound concentration 0.1 μM; read-out: ADP-Glo method inhibitory rate (%) human IP6K3
T1 construct: human IP6K3 (1-410) gene; made in house; host or cells: BL21 (DE3) Escherichia coli
T1 sequence (Q96PC2 1-410): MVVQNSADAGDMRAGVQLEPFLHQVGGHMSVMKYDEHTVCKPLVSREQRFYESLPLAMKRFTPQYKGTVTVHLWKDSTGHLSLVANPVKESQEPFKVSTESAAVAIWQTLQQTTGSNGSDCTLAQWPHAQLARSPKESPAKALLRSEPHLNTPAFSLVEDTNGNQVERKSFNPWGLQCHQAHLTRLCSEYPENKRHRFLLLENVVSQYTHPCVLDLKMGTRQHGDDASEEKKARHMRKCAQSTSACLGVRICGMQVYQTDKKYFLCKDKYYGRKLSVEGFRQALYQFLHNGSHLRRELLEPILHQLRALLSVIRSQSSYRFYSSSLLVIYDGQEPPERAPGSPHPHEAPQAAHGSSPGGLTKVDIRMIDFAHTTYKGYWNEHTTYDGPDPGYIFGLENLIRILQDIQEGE
In short: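 Recombinant human IP6K (IP6K3 residues 1-410, E. coli, Ni-NTA purified) incubated with compound in 20 mM HEPES pH 7.5, 6 mM MgCl2, 0.01% Tween-20, 1 mM DTT for 60 min at room temperature. ADP formed read as luminescence by ADP-Glo.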

human IP6K1 = target: T2, human IP6K1 (Homo sapiens, UniProt Q92551); experiment: IP6K enzyme inhibitory assay (ADP-Glo Kinase Assay), human IP6K1; details: compound concentration 0.1 μM; read-out: ADP-Glo method inhibitory rate (%) human IP6K1
T2 construct: human IP6K1 (1-441) gene; GST; made in house; host or cells: Sf-9 insect cells
T2 sequence (Q92551 whole entry): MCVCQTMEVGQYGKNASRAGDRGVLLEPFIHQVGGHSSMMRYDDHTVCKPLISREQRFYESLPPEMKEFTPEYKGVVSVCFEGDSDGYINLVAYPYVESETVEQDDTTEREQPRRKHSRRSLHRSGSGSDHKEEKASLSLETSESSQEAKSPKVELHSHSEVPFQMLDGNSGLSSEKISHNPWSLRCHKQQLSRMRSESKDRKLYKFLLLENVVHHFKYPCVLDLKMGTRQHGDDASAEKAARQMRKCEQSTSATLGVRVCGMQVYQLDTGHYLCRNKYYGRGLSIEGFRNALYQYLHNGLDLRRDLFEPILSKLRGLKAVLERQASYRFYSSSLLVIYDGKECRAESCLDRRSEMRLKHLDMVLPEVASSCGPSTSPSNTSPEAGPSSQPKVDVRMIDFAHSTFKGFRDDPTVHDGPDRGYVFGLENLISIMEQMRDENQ
In short: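 Inhibition of human IP6K1 was determined with Promega's ADP-Glo Kinase Assay in 384 well plates. Test compound diluted in assay buffer (20 mM HEPES (pH 7.5), 6 mM MgCl2, 0.01% Tween-20, 1 mM DTT) was added at 2 μL, then 2 μL of enzyme started the reaction for 60 min at room temperature. Next came 3 μL ADP-Glo solution for 30 min and 6 μL Kinase-Detection solution for 60 min. Luminescence was read on an Envision plate reader.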

human IP6K2 = target: T3, human IP6K2 (Homo sapiens, UniProt Q9UHH9); experiment: IP6K enzyme inhibitory assay (ADP-Glo Kinase Assay), human IP6K2; details: compound concentration 0.1 μM; read-out: ADP-Glo method inhibitory rate (%) human IP6K2
T3 construct: human IP6K2 (1-426) gene; GST; made in house; host or cells: Sf-9 insect cells
T3 sequence (Q9UHH9 1-426): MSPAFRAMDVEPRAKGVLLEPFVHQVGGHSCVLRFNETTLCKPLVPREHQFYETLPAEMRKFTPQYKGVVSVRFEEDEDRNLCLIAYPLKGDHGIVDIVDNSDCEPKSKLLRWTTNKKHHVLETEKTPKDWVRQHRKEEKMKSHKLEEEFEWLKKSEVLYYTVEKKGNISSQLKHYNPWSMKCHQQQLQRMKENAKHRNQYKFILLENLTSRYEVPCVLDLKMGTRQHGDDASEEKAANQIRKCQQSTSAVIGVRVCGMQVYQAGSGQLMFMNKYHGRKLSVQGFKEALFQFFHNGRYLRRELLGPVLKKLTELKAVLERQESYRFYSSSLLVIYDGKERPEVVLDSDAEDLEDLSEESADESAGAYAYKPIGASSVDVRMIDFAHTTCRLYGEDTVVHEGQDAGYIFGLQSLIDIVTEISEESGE
In short: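 The inhibitory activity against human IP6K2 was measured with Promega's ADP-Glo Kinase Assay in 384 well plates. Test compound, diluted in assay buffer (20 mM HEPES (pH 7.5), 6 mM MgCl2, 0.01% Tween-20, 1 mM DTT), was added at 2 μL. Adding 2 μL of diluted enzyme started the reaction, which ran for 60 min at room temperature. Next, 3 μL ADP-Glo solution (30 min) and 6 μL Kinase-Detection solution (60 min) were added, and luminescence was read on an Envision plate reader.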

Row | SMILES | inhibition at 0.1 µM (human IP6K3) | inhibition at 0.1 µM (human IP6K1) | inhibition at 0.1 µM (human IP6K2)
1 | Cc1cc(Cl)cc(C)c1O[C@H]1CC[C@@]2(CC1)C(=O)Nc1ccc(C(=O)O)nc12 [Example 94, (1r,4r)-4-(4-chloro-2,6-dimethylphenoxy)-2′-oxo-1′,2′-dihydrospiro[cyclohexane-1,3′-pyrrolo[3,2-b]pyridine]-5′-carboxylic acid] | 101% | 91% | 97%
2 | O=C(O)c1ccc2c(n1)[C@]1(CC[C@@H](Oc3ncc(Cl)cc3C(F)(F)F)CC1)C(=O)N2 [Example 99, (1r,4r)-4-((5-chloro-3-(trifluoromethyl)pyridin-2-yl)oxy)-2′-oxo-1′,2′-dihydrospiro[cyclohexane-1,3′-pyrrolo[3,2-b]pyridine]-5′-carboxylic acid] | 83% | 51% | 64%
3 | O=C(O)c1ccc2c(n1)[C@]1(CC[C@H](Oc3ncc(Cl)cc3F)CC1)C(=O)N2 [Example 100, (1s,4s)-4-((5-chloro-3-fluoropyridin-2-yl)oxy)-2′-oxo-1′,2′-dihydrospiro[cyclohexane-1,3′-pyrrolo[3,2-b]pyridine]-5′-carboxylic acid] | 97% | 76% | 98%
4 | Cc1cc(C(F)(F)F)cnc1O[C@H]1CC[C@]2(CC1)C(=O)Nc1ccc(C(=O)O)nc12 [Example 103, (1s,4s)-4-((3-methyl-5-(trifluoromethyl)pyridin-2-yl)oxy)-2′-oxo-1′,2′-dihydrospiro[cyclohexane-1,3′-pyrrolo[3,2-b]pyridine]-5′-carboxylic acid] | 99% | 98% | 99%
5 | O=C(O)c1ccc2c(n1)[C@]1(CC[C@@H](Oc3ncc(C(F)(F)F)cc3Cl)CC1)C(=O)N2 [Example 105, (1r,4r)-4-((3-chloro-5-(trifluoromethyl)pyridin-2-yl)oxy)-2′-oxo-1′,2′-dihydrospiro[cyclohexane-1,3′-pyrrolo[3,2-b]pyridine]-5′-carboxylic acid] | 95% | 86% | 94%
6 | Cc1c(Cl)cnc(O[C@H]2CC[C@]3(CC2)C(=O)Nc2ccc(C(=O)O)nc23)c1C#N [Example 106, (1s,4s)-4-((5-chloro-3-cyano-4-methylpyridin-2-yl)oxy)-2′-oxo-1′,2′-dihydrospiro[cyclohexane-1,3′-pyrrolo[3,2-b]pyridine]-5′-carboxylic acid] | 95% | 96% | 97%
7 | O=C(O)c1ccc2c(n1)[C@]1(CC[C@@H](Oc3ncc(C4CC4)cc3C(F)(F)F)CC1)C(=O)N2 [Example 109, (1r,4r)-4-((5-cyclopropyl-3-(trifluoromethyl)pyridin-2-yl)oxy)-2′-oxo-1′,2′-dihydrospiro[cyclohexane-1,3′-pyrrolo[3,2-b]pyridine]-5′-carboxylic acid] | 95% | 94% | 95%
8 | N#Cc1cc(Cl)cnc1O[C@H]1CC[C@]2(CC1)C(=O)Nc1ccc(C(=O)O)nc12 [Example 110, (1s,4s)-4-((5-chloro-3-cyanopyridin-2-yl)oxy)-2′-oxo-1′,2′-dihydrospiro[cyclohexane-1,3′-pyrrolo[3,2-b]pyridine]-5′-carboxylic acid] | 96% | 84% | 96%
9 | O=C(O)c1ccc2c(n1)[C@]1(CC[C@H](Oc3ncc(C4CC4)cc3Cl)CC1)C(=O)N2 [Example 111, (1s,4s)-4-((3-chloro-5-cyclopropylpyridin-2-yl)oxy)-2′-oxo-1′,2′-dihydrospiro[cyclohexane-1,3′-pyrrolo[3,2-b]pyridine]-5′-carboxylic acid] | 98% | 91% | 99%
10 | Cc1cc(C(F)(F)F)cnc1O[C@H]1CC[C@@]2(CC1)C(=O)Nc1ccc(C(=O)O)nc12 [Example 112, (1r,4r)-4-((3-methyl-5-(trifluoromethyl)pyridin-2-yl)oxy)-2′-oxo-1′,2′-dihydrospiro[cyclohexane-1,3′-pyrrolo[3,2-b]pyridine]-5′-carboxylic acid] | 97% | 90% | 90%

More lines, now with the values ahead:

Row | inhibition at 0.1 µM (human IP6K3) | inhibition at 0.1 µM (human IP6K1) | inhibition at 0.1 µM (human IP6K2) | SMILES
11 | 96% | 88% | 91% | O=C(O)c1ccc2c(n1)[C@]1(CC[C@@H](Oc3ccc(Cl)cc3C(F)(F)F)CC1)C(=O)N2 [Example 95, (1r,4r)-4-(4-chloro-2-(trifluoromethyl)phenoxy)-2′-oxo-1′,2′-dihydrospiro[cyclohexane-1,3′-pyrrolo[3,2-b]pyridine]-5′-carboxylic acid]
12 | 101% | 95% | 99% | O=C(O)c1ccc2c(n1)[C@]1(CC[C@H](Oc3ccc(Cl)cc3C(F)(F)F)CC1)C(=O)N2 [Example 96, (1s,4s)-4-(4-chloro-2-(trifluoromethyl)phenoxy)-2′-oxo-1′,2′-dihydrospiro[cyclohexane-1,3′-pyrrolo[3,2-b]pyridine]-5′-carboxylic acid]
13 | 98% | 104% | 100% | O=C(O)c1ccc2c(n1)[C@]1(CC[C@H](Oc3ccc(Cl)cc3Cl)CC1)C(=O)N2 [Example 101, (1s,4s)-4-(2,4-dichlorophenoxy)-2′-oxo-1′,2′-dihydrospiro[cyclohexane-1,3′-pyrrolo[3,2-b]pyridine]-5′-carboxylic acid]
14 | 97% | 105% | 94% | O=C(O)c1ccc2c(n1)[C@]1(CC[C@@H](Oc3ccc(Cl)cc3Cl)CC1)C(=O)N2 [Example 102, (1r,4r)-4-(2,4-dichlorophenoxy)-2′-oxo-1′,2′-dihydrospiro[cyclohexane-1,3′-pyrrolo[3,2-b]pyridine]-5′-carboxylic acid]
15 | 98% | 95% | 99% | Cc1ccc(C#N)c(O[C@H]2CC[C@]3(CC2)C(=O)Nc2ccc(C(=O)O)cc23)n1 [Example 104, (1s,4s)-4-((3-cyano-6-methylpyridin-2-yl)oxy)-2′-oxo-1′,2′-dihydrospiro[cyclohexane-1,3′-indole]-5′-carboxylic acid]
16 | 92% | 94% | 93% | O=C(O)c1ccc2c(c1)[C@]1(CC[C@H](Oc3ccccc3)CC1)C(=O)N2 [Example 107, (1s,4s)-2′-oxo-4-phenoxy-1′,2′-dihydrospiro[cyclohexane-1,3′-indole]-5′-carboxylic acid]
17 | 99% | 97% | 101% | O=C(O)c1ccc2c(c1)[C@]1(CC[C@H](Oc3ccc(Cl)cc3)CC1)C(=O)N2 [Example 108, (1s,4s)-4-(4-chlorophenoxy)-2′-oxo-1′,2′-dihydrospiro[cyclohexane-1,3′-indole]-5′-carboxylic acid]
18 | 85% | 79% | 79% | O=C(O)c1ccc2c(c1)[C@]1(CC[C@@H](Oc3ccccc3)CC1)C(=O)N2 [Example 113, (1r,4r)-2′-oxo-4-phenoxy-1′,2′-dihydrospiro[cyclohexane-1,3′-indole]-5′-carboxylic acid]
